Drawing on PubChem BioAssay AID248 (DTP/NCI, 2004), this text covers T/C for 15 compounds.

The test system of the assay is L1210 leukemia ip in BDF1 mice, survival T/C. The assay can be described thus: NCI In Vivo Anticancer Drug Screen. Data for tumor model L1210 Leukemia (intraperitoneal) in B6D2F1 (BDF1) mice. Conditions: endpoint: mean survival time, higher = longer survival. The method, boiled down: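 Ratio derived from survival: compound-dosed mice over vehicle-dosed mice, all bearing a transplantable tumor.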

[1] abbreviates: dose: 100.0 mg/kg/injection, schedule: Q01DX001 (ip), vehicle: saline with Tween-80.
Setting [2] is: dose: 200.0 mg/kg/injection, schedule: Q01DX001 (ip), vehicle: saline with Tween-80.
The mark [3] stands for this setting: dose: 100.0 mg/kg/injection, schedule: Q01DX001 (ip), vehicle: saline.
Setting [4] is: dose: 200.0 mg/kg/injection, schedule: Q01DX001 (ip), vehicle: saline.
[5] abbreviates: dose: 100.0 mg/kg/injection, schedule: Q04DX003 (ip), vehicle: saline with Tween-80.
Where [6] appears, read: dose: 50.0 mg/kg/injection, schedule: Q04DX003 (ip), vehicle: saline with Tween-80.

Where “and” joins values, the source holds several entries; their conditions need not be identical. Equal entries are not always repeated. Inconclusive results and toxic doses are left out.

In the case of `Cn1cc(/C=C/C(N)=O)c2nccnc21`, the T/C (dose: 1.56 mg/kg/injection, schedule: Q01DX009 (ip), vehicle: water) is 94 % of control; the T/C (dose: 3.12 mg/kg/injection, schedule: Q01DX009 (ip), vehicle: water) was 92 % of control; the T/C (dose: 6.25 mg/kg/injection, schedule: Q01DX009 (ip), vehicle: water) is 107 % of control; the T/C (dose: 12.5 mg/kg/injection, schedule: Q01DX009 (ip), vehicle: water) is 103 % of control; the T/C (dose: 25.0 mg/kg/injection, schedule: Q01DX009 (ip), vehicle: water) was 100 % of control and 110 % of control.
For `C=CCc1ccc(OC(=O)Nc2cc(Cl)ccc2OC)c(OC)c1`, the T/C is, setting by setting: under setting [1], 102 % of control; (dose: 100.0 mg/kg/injection, schedule: Q01DX009 (ip), vehicle: saline with Tween-80) 90 % of control; (dose: 100.0 mg/kg/injection, schedule: Q04DX002 (ip), vehicle: saline with Tween-80) 101 % of control and 91 % of control; under setting [2], 90 % of control; (dose: 200.0 mg/kg/injection, schedule: Q01DX009 (ip), vehicle: saline with Tween-80) 96 % of control; (dose: 200.0 mg/kg/injection, schedule: Q04DX002 (ip), vehicle: saline with Tween-80) 95 % of control. Besides, the T/C is 90 % of control (dose: 400.0 mg/kg/injection, schedule: Q01DX001 (ip), vehicle: saline with Tween-80); 95 % of control (dose: 400.0 mg/kg/injection, schedule: Q01DX009 (ip), vehicle: saline with Tween-80); 87 % of control and 90 % of control (dose: 400.0 mg/kg/injection, schedule: Q04DX002 (ip), vehicle: saline with Tween-80).
In the case of `COc1ccc(CC(=O)N(CCNS(=O)(=O)c2ccc(C)cc2)CCOC(C)=O)cc1`, the T/C was 104 % of control (dose: 100.0 mg/kg/injection, schedule: Q01DX001 (ip), vehicle: water); 107 % of control (dose: 200.0 mg/kg/injection, schedule: Q01DX001 (ip), vehicle: water); 96 % of control (dose: 400.0 mg/kg/injection, schedule: Q01DX001 (ip), vehicle: water).
On to `CCOC(=S)Sc1ccc2c(c1)-c1ccc(F)cc1C2=O`, for which the T/C was 111 % of control (dose: 100.0 mg/kg/injection, schedule: Q01DX001 (ip), vehicle: carboxymethylcellulose (CMC)); 95 % of control (dose: 200.0 mg/kg/injection, schedule: Q01DX001 (ip), vehicle: carboxymethylcellulose (CMC)); 98 % of control (dose: 400.0 mg/kg/injection, schedule: Q01DX001 (ip), vehicle: carboxymethylcellulose (CMC)).
Consider `CCOC(=O)CC(CC(=O)OCC)C(=O)OCC`, for which the T/C (dose: 100.0 mg/kg/injection, schedule: Q04DX002 (ip), vehicle: saline) is 104 % of control; the T/C (dose: 200.0 mg/kg/injection, schedule: Q04DX002 (ip), vehicle: saline) is 96 % of control; the T/C (dose: 400.0 mg/kg/injection, schedule: Q04DX002 (ip), vehicle: saline) was 107 % of control.
As to `OC(COc1ccc(Cl)cc1)CN1CCN(c2ccc(Cl)cc2)CC1` (stereo not given), the T/C under setting [3] is 97 % of control; the T/C under setting [4] was 95 % of control; the T/C (dose: 400.0 mg/kg/injection, schedule: Q01DX001 (ip), vehicle: saline) was 95 % of control.
Turning to `NC(=S)N/N=C/c1ccc(OC(=O)COc2ccccc2Cl)cn1`, the T/C by setting is: under setting [5], 124 % of control; (dose: 400.0 mg/kg/injection, schedule: Q04DX003 (ip), vehicle: saline with Tween-80) 93 % of control.
Regarding `O=C(O)c1ccccc1N=CC(=O)c1c2ccccc2cc2ccccc12`, the T/C (dose: 12.5 mg/kg/injection, schedule: Q04DX002 (ip), vehicle: Klucel (hydroxypropylcellulose) (HPC)) was 105 % of control; the T/C (dose: 25.0 mg/kg/injection, schedule: Q04DX002 (ip), vehicle: Klucel (hydroxypropylcellulose) (HPC)) is 105 % of control; the T/C (dose: 50.0 mg/kg/injection, schedule: Q04DX002 (ip), vehicle: Klucel (hydroxypropylcellulose) (HPC)) was 102 % of control.
On to `CCOC(=O)c1[nH]c(-c2ccc(OC)cc2)c(C(=O)OCC)c1-c1ccccc1`, for which the T/C runs as follows: (dose: 100.0 mg/kg/injection, schedule: Q01DX001 (ip), vehicle: Klucel (hydroxypropylcellulose) (HPC)) 88 % of control; (dose: 200.0 mg/kg/injection, schedule: Q01DX001 (ip), vehicle: Klucel (hydroxypropylcellulose) (HPC)) 108 % of control; (dose: 400.0 mg/kg/injection, schedule: Q01DX001 (ip), vehicle: Klucel (hydroxypropylcellulose) (HPC)) 114 % of control.
As to `CNC(=O)Oc1ccccc1NC(=O)OC`, the T/C reads like this: (dose: 25.0 mg/kg/injection, schedule: Q04DX003 (ip), vehicle: saline with Tween-80) 97 % of control; under setting [6], 95 % of control; under setting [5], 92 % of control and 97 % of control.
Consider `Cc1c2ccccc2cc2[n+]1CCc1ccccc1-2`, for which the T/C under setting [6] is 100 % of control; the T/C under setting [1] was 98 % of control; the T/C under setting [5] is 105 % of control; the T/C under setting [2] was 96 % of control; the T/C (dose: 200.0 mg/kg/injection, schedule: Q04DX003 (ip), vehicle: saline with Tween-80) is 107 % of control.
For `CC(C)n1cnc2c(=S)nc[nH]c21`, the T/C (dose: 3.12 mg/kg/injection, schedule: Q01DX Z (ip), vehicle: carboxymethylcellulose (CMC)) was 106 % of control; the T/C (dose: 7.25 mg/kg/injection, schedule: Q01DX Z (ip), vehicle: carboxymethylcellulose (CMC)) is 103 % of control; the T/C (dose: 7.25 mg/kg/injection, schedule: Q01DX Z (oral), vehicle: carboxymethylcellulose (CMC)) was 110 % of control; the T/C (dose: 14.5 mg/kg/injection, schedule: Q01DX Z (ip), vehicle: carboxymethylcellulose (CMC)) was 110 % of control; the T/C (dose: 14.5 mg/kg/injection, schedule: Q01DX Z (oral), vehicle: carboxymethylcellulose (CMC)) was 118 % of control; the T/C (dose: 29.0 mg/kg/injection, schedule: Q01DX Z (ip), vehicle: carboxymethylcellulose (CMC)) is 116 % of control. Moreover, the T/C was 152 % of control (dose: 58.0 mg/kg/injection, schedule: Q01DX Z (oral), vehicle: carboxymethylcellulose (CMC)) and 90 % of control (dose: 210.0 mg/kg/injection, schedule: Q01DX Z (ip), vehicle: carboxymethylcellulose (CMC)).
For the compound `CCn1c(C)cc(=O)n1-c1ccc([N+](=O)[O-])cc1`, the T/C reads like this: (dose: 100.0 mg/kg/injection, schedule: Q04DX003 (ip), vehicle: Klucel (hydroxypropylcellulose) (HPC)) 96 % of control; (dose: 200.0 mg/kg/injection, schedule: Q04DX003 (ip), vehicle: Klucel (hydroxypropylcellulose) (HPC)) 104 % of control; (dose: 400.0 mg/kg/injection, schedule: Q04DX003 (ip), vehicle: Klucel (hydroxypropylcellulose) (HPC)) 98 % of control.
As for `O=c1ccc2ccccc2o1`, the T/C was 114 % of control (dose: 45.0 mg/kg/injection, schedule: Q01DX Z (ip), vehicle: carboxymethylcellulose (CMC)); 94 % of control (dose: 65.0 mg/kg/injection, schedule: Q01DX Z (ip), vehicle: carboxymethylcellulose (CMC)); 102 % of control (dose: 95.0 mg/kg/injection, schedule: Q01DX Z (ip), vehicle: carboxymethylcellulose (CMC)); 100 % of control (dose: 100.0 mg/kg/injection, schedule: Q01DX001 (ip), vehicle: other); 102 % of control and 105 % of control (dose: 110.0 mg/kg/injection, schedule: Q01DX Z (ip), vehicle: carboxymethylcellulose (CMC)); 97 % of control (dose: 165.0 mg/kg/injection, schedule: Q01DX Z (ip), vehicle: carboxymethylcellulose (CMC)). Moreover, where the note is “dose: 200.0 mg/kg/injection, schedule: Q01DX001 (ip), vehicle: other”, the T/C was 105 % of control.
With `O=[N+]([O-])c1ccc(NCCNC(c2ccccc2)(c2ccccc2)c2ccccc2)c([N+](=O)[O-])c1`, the T/C runs as follows: (dose: 50.0 mg/kg/injection, schedule: Q01DX009 (ip), vehicle: saline) 96 % of control; under setting [3], 87 % of control; (dose: 100.0 mg/kg/injection, schedule: Q01DX009 (ip), vehicle: saline) 91 % of control; under setting [4], 90 % of control; (dose: 200.0 mg/kg/injection, schedule: Q01DX009 (ip), vehicle: saline) 93 % of control.
